This is an account of results in US10870634B2, “Histone demethylase inhibitors” (CELGENE QUANTICEL RESEARCH, INC., priority 2016, dated 2020).

One experiment addresses T1, JMJD2C (Homo sapiens, UniProt Q9H3R0).
T1 construct: purchased BPS Bioscience 50105
T1 sequence (Q9H3R0 2-372): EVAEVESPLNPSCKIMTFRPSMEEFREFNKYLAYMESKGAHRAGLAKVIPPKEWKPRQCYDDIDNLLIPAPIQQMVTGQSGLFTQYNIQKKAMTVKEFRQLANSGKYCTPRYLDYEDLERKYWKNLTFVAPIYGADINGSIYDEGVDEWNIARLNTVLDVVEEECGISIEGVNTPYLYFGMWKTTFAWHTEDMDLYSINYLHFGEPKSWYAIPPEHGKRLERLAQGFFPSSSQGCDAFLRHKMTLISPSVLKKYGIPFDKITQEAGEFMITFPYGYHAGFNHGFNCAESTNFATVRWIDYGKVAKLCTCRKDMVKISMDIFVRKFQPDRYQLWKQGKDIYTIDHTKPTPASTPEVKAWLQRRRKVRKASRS
Kind of experiment: JMJD2C in vitro enzyme inhibition assay (TR-FRET). It is filed as biochemical. As to conditions: 0.3 nM JMJD2C, 300 nM H3K9me3-biotin peptide, 2 μM alpha-ketoglutaric acid. From the text:
(§1) This assay determines the ability of a test compound to inhibit Jarid1B, JMJD2C and JMJD3 demethylase activity. Baculovirus-expressed Jarid1B (GenBank Accession # NM-006618, AA 2-751) was purchased from BPS Bioscience (Cat #50121) or custom made by MolecularThroughput. Baculovirus-expressed JMJD2C (GenBank Accession # BC143571, AA 2-372) was purchased from BPS Bioscience (Cat #50105). Baculovirus-expressed JMJD3 (GenBank Accession # NM_001080424, AA1043-end) was purchased from BPS Bioscience (Cat #50115).
The ability of test compounds to inhibit the activity of JMJD2C was determined in 384-well plate format under the following reaction conditions: 0.3 nM JMJD2C, 300 nM H3K9me3-biotin labeled peptide (Anaspec cat #464360), 2 μM alpha-ketoglutaric acid in assay buffer of 50 mM HEPES, pH 7.3, 0.005% Brij35, 0.5 mM TCEP, 0.2 mg/ml BSA, 50 μM sodium L-ascorbate, and 2 μM ammonium ironll sulfate. Reaction product was determined quantitatively by TR-FRET after the addition of detection reagent Phycolink Streptavidin-allophycocyanin (Prozyme) and Europium-anti-di-methylated histone H3 lysine 9 (H3K9me2) antibody (PerkinElmer) in the presence of 5 mM EDTA in LANCE detection buffer (PerkinElmer) at a final concentration of 50 nM and 1 nM, respectively.
The assay reaction was initiated by the following: 2 μl of the mixture of 900 nM H3K9me3-biotin labeled peptide and 6 μM alpha-ketoglutaric acid with 2 μl of 11-point serial diluted inhibitor in 3% DMSO were added to each well of the plate, followed by the addition of 2 μl of 0.9 nM JMJD2C to initiate the reaction. […] Plates were read by EnVisionMultilabel Reader in TR-FRET mode (excitation at 320 nm, emission at 615 nm and 665 nm) after 1 hr incubation at RT. A ratio was calculated (665/615) for each well and fitted to determine inhibition constant (IC50).
(§2) The ability to inhibit demethylase activity was quantified and the respective IC50 value was determined for substituted triazolylpyridine derivative compounds. […]
(Time-resolved FRET reads energy transfer from a long-lived donor to a nearby acceptor.)

A further experiment deals with T2, JMJD3 (Homo sapiens, UniProt O15054).
T2 construct: purchased BPS Bioscience 50115
T2 sequence (O15054 1043-1682 isoform O15054-1): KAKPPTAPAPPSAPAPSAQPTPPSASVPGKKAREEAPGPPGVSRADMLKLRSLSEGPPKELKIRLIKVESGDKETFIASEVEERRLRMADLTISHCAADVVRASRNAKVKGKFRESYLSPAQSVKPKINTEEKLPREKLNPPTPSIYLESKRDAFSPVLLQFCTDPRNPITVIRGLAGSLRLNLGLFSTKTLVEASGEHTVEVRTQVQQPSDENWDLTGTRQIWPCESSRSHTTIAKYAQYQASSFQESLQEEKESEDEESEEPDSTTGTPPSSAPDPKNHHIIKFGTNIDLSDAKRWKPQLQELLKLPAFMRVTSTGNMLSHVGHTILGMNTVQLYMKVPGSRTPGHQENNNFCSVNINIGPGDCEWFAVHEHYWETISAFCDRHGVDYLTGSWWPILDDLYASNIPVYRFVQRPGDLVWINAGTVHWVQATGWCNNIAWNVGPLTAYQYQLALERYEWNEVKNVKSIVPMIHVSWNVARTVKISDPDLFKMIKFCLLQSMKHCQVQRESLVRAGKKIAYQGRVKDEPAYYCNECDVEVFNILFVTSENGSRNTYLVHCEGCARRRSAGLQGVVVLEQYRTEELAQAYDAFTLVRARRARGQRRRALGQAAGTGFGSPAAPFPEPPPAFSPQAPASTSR
In words: JMJD3 in vitro enzyme inhibition assay (AlphaScreen). The class given is biochemical. The conditions noted are these: 1 nM JMJD3, 250 nM H3K27me3-biotin peptide, 1 μM alpha-ketoglutaric acid.
Excerpt: as §1
The ability of test compounds to inhibit the activity of JMJD3 was determined in 384-well plate format under the following reaction conditions: 1 nM JMJD3, 250 nM H3K27me3-biotin labeled peptide (Anaspec cat #64367), 1 μM alpha-ketoglutaric acid in assay buffer of 50 mM HEPES, pH 7.3, 0.005% Brij35, 0.5 mM TCEP, 0.2 mg/ml BSA, 50 μM sodium L-ascorbate, 5 μM ammonium ironII sulfate. Reaction product is determined quantitatively by AlphaScreen detection after the addition of detection reagents anti-H3K27me1 antibody, 5 μg/ml AlphaScreen® Streptavidin-coated Donor beads, and 5 μg/ml. AlphaScreen® Protein A Acceptor beads in 50 mM HEPES, pH 7.3, 10 mM NaCl, 0.005% Brij35, 10 mM :EDTA, 2 mg/ml BSA.
The assay reaction was initiated by the following: 3 μl of the mixture of 750 nM H3K27me3-biotin labeled peptide and 3 μM alpha-ketoglutaric acid with 3 μl of 11-point serial diluted inhibitor in 3% DMSO are added to each well of 384-well Proxiplate (Perkin Elmer), followed by the addition of 3 μl of 3 nM JMJD3 to initiate the reaction. The reaction mixture was incubated at room temp for 20 min, and terminated by the addition of 3 μl of appropriate dilution of anti-H3K27me1 antibody in 50 mM HEPES, pH 7.3, 10 mM NaCl, 0.005% Brij35, 10 mM EDTA, 2 mg/ml BSA. […] Plates were read by EnVision Multilabel Reader in AlphaScreen mode after minimum 2 hr incubation at room temp. […]
as §2

Each structure is given as a SMILES string. Where only a bound is given, the exact number is not on record here.

For `Fc1cnccc1-c1nn[nH]c1C(F)(F)F` [Example 1, 3-fluoro-4-[5-(trifluoromethyl)-1H-1,2,3-triazol-4-yl]pyridine], the IC50 against JMJD2C and on JMJD3 was greater than 10 µM each time.
Take `Fc1ccc(Cl)cc1Nc1cnccc1-c1nn[nH]c1C(F)(F)F` [Example 2, N-(5-chloro-2-fluorophenyl)-4-[5-(trifluoromethyl)-1H-1,2,3-triazol-4-yl]pyridin-3-amine]: the IC50 against JMJD2C and at JMJD3 was greater than 10 µM each time.
For the molecule `FC(F)(F)c1[nH]nnc1-c1ccncc1NCC1CCCc2ccccc21` (stereo not drawn) [Example 3, N-[(1,2,3,4-tetrahydronaphthalen-1-yl)methyl]-4-[5-(trifluoromethyl)-1H-1,2,3-triazol-4-yl]pyridine-3-amine], the IC50 on JMJD2C and at JMJD3 was greater than 10 µM throughout.

The term IC50 denotes the concentration that gives 50% inhibition.
